Key:
[1] = system: Ascl1-reporter Müller glia; assay: miRNA mimic/antagomiR transfection of P11 MG cultures from Ascl1-CreER:tdTomato reporter mice; assay type: cell-based, mouse
Text: To test whether miRNAs regulate the neurogenic competence of MG, we used primary dissociated cell cultures, since this method has proven effective for identifying reprogramming factors that are effective both in vitro and in vivo (Jorstad et al., 2017; Pollak et al., 2013; Ueki et al., 2015). We hypothesized that miRNAs highly expressed in RPCs may be important in establishing and maintaining the RPC gene expression pattern. One prediction of this hypothesis is that over-expression of the RPC-miRNAs in MG would cause the MG to adopt a progenitor-like gene expression profile. […]
MG cultures from P11 Ascl1-CreER:tdTomatoflSTOP/flSTOP mice were transfected with either a cocktail of all four RPC-miR mimics, or each miRNA mimic individually (FIG. 10B). We added 4-Hydroxy-tamoxifen to the cultures to activate the cre-recombinase and monitored the cells for tdTomato expression. […]
Müller glia were dissociated (see above) from postnatal day (P) 11/12 mice and adult (one month, 2, and 4 months) and grown in Neurobasal medium supplemented with N-2, tetracycline-free 10% fetal bovine serum (FBS, Clontech), and epidermal growth factor (EGF, R&D Systems, 100 ng/mL) as described previously (Ueki et al., 2012). […] EdU was added either with the onset of culturing to track cell proliferation of MG lineage or after transfection to quantify cell proliferation due to the treatment. […]

WT retinas = conditions: mouse, in vivo
Text: A) Experimental paradigm for analyzing STAT3 phosphorylation by western blot in MG. P11 retinas were dissociated and grown in a growth media containing mEGF for 7 DIV. MG were passaged to eliminate residual neurons and cultured in a media containing doxycycline to induce Ascl1 expression for 6 DIV. […] B) Representative images from confluent cultures of non-treated, DOX-treated, and DOX+STATi-treated MG just before harvesting. C) Representative western blot for pSTAT3 (Y705), STAT3, and Beta-actin on non-treated, Dox-treated, and Dox+STATi-treated MG cultures. […] Scale bars for B and E are 25 and 40 μm, respectively.
Immunohistochemistry (IHC): Upon euthanasia of adult mice, eyes were removed and comeas dissected away. Globes were then fixed for 1 hour in 4% PFA in PBS followed by an overnight incubation in 30% sucrose in PBS at 4° C. Fixed eyes were then frozen in O.T.C. (Sakura Finetek) at −80° C. until sectioned. Frozen eyes were sectioned on a cryostat (Leica) at 16-18 μm thick and were stored at −20° C. until staining. All washes were 3 times 20 minutes in PBS on a rotating plate at room temperature. Slides were washed then blocked in 10% normal horse serum, 0.5% Triton X-100 in PBS for a minimum of 1 hour prior to primary. All primary antibodies were diluted in blocking solution and applied to tissue for a minimum of 3 hours. […]

[2] = system: Ascl1 binding at STAT3 bound regions; assay: Ascl1 ChIP-seq on control and STATi-treated cultured MG; assay type: cell-based, mouse; conditions: cultured P12 MG, doxycycline-induced Ascl1
Description: To directly assess the effect that STAT pathway activation has on Ascl1 binding at Id genes and more broadly across the genome during MG reprogramming, we performed an Ascl1 ChIP-seq on control and STATi-treated MG. Frozen stocks of MG from P12 germline-rtTA:tetO429 Ascl1 mice were thawed and cultured to confluency for 2 days in high FBS growth media. Cells were then given a low FBS media with STATi or vehicle for the remaining 4 DIV. At 3 DIV (1 day after STATi), doxycyline was administered to induce Ascl1 overexpression in the MG. Cells were then collected and fixed for ChIP-seq after 6 DIV. FASTQ files were aligned to the mm10 genome using Bowtie2 and peaks were called using MACS2. […] Both datasets contained the canonical Ascl1 E-box as the top scoring motif, as determined by HOMER, with strong central enrichment of peaks from both datasets around the Ascl1 motif. […]
Ascl1 Chromatin Immunoprecipitation-Sequencing (ChIP-Seq): P0 retinas or cultured, post-natal day 12, Müller glia (+/−Ascl1 overexpression, rtTA germline:tetO-Ascl1-ires-GFP mice ±doxycycline) were digested with papain/DNase to single cells and fixed with 0.75% formaldehyde for 10 minutes at room temperature. […] Libraries were prepared with standard Illumina adaptors and sequenced to an approximate depth of 36 million reads each. Sequence reads (36 bp) were mapped to the mouse mm9 genome using bwa (v 0.7.12-r1039). […]

miR-25: miR-25 mimic, CAUUGCACUUGUCUCGGUCUGA (SEQ ID NO: 22); double-stranded, preprocessed miRNA (double-stranded mimic, other strand not given here)
Ascl1:tdTomato+ cells (Ascl1-reporter expression) ([1]; P11 MG cultures, days post-transfection vs control): significant increase | conversion of MG into a neuronal/RPC phenotype ([1]; young (P11) MG in vitro, summary statement): approximately 40%

CN(CC(=O)N(Cc1ccc(C2CCCCC2)cc1)c1ccc(C(=O)O)cc1)S(=O)(=O)c1c(F)c(F)c(F)c(F)c1F [SH-4-54]
toxicity (TUNEL staining) (WT retinas): not found to be toxic | Ascl1 binding (ChIP-seq peaks) at STAT3 bound regions near Id1 and Id3 [2]: Decreased Ascl1 binding
